Results taken from patent US20120252803A1, “COMPOSITION AND METHOD FOR CONTROLLING ARTHROPOD PESTS” (SUMITOMO CHEMICAL COMPANY, LIMITED, priority 2009, published 2012).

What was measured:
[1] = tested on: Common cutworm (Spodoptela litura); test: Test Example 1: pesticidal effect of artificial diet irrigation treatment on Common cutworm; format: in vivo; conditions: artificial diet irrigated with 2 mL test solution, fourth instar larvae, after 6 days
[2] = tested on: Common cutworm (Spodoptela litura); test: Test Example 2: pesticidal effect of artificial diet irrigation treatment on Common cutworm; format: in vivo; conditions: artificial diet irrigated with 2 mL test solution, fourth instar larvae, after 6 days
[3] = composition of the compound and esfenvalerate, Table 43
[4] = composition of the compound and fenpropathrin, Table 44
[5] = composition of the compound and esfenvalerate, Table 45
[6] = composition of the compound and fenpropathrin, Table 46

Compound | pesticidal efficacy against Common cutworm (Spodoptela litura) [1, 3] | pesticidal efficacy against Common cutworm (Spodoptela litura) [1, 4] | pesticidal efficacy against Common cutworm (Spodoptela litura) [2, 5] | pesticidal efficacy against Common cutworm (Spodoptela litura) [2, 6]
FC(F)(F)c1ccc2oc(-c3ccncc3Cl)nc2c1 [Compound 18, 2-(3-chloropyridin-4-yl)-5-(trifluoromethyl)benzoxazole] | high pesticidal efficacy | high pesticidal efficacy |  | 
FC(F)(F)COc1cnccc1-c1nc2cc(C(F)(F)F)ccc2o1 [Compound 39, 2-[3-(2,2,2-trifluoroethyl)oxypyridin-4-yl]-5-(trifluoromethyl)benzoxazole] |  |  | high pesticidal efficacy | high pesticidal efficacy
CC(C)Oc1cnccc1-c1nc2cc(C(F)(F)F)ccc2o1 [Compound 70, 2-(3-isopropoxypyridin-4-yl)-5-(trifluoromethyl)benzoxazole] | high pesticidal efficacy | high pesticidal efficacy |  | 
FC(F)(F)Sc1ccc2oc(-c3ccncc3Cl)nc2c1 [Compound 77, 2-(3-chloropyridin-4-yl)-5-(trifluoromethylthio)benzoxazole] | high pesticidal efficacy | high pesticidal efficacy |  | 
CCc1cnccc1-c1nc2cc(OC(F)(F)F)ccc2o1 [Compound 109, 2-(3-ethylpyridin-4-yl)-5-(trifluoromethoxy)benzoxazole] | high pesticidal efficacy | high pesticidal efficacy |  | 
CC(C)COc1cnccc1-c1nc2cc(C(F)(F)F)ccc2o1 [Compound 116, 2-(3-isobutoxypyridin-4-yl)-5-(trifluoromethyl)benzoxazole] |  |  | high pesticidal efficacy | high pesticidal efficacy
CC(C)(C)COc1cnccc1-c1nc2cc(C(F)(F)F)ccc2o1 [Compound 117, 2-[3-(2,2-dimethylpropoxy)pyridin-4-yl]-5-(trifluoromethyl)benzoxazole] |  |  | high pesticidal efficacy | high pesticidal efficacy
FC(F)(F)c1ccc2oc(-c3ccncc3-c3cccnc3)nc2c1 [Compound 128, 4-(5-trifluoromethyl-benzoxazole-2-yl)-[3,3′]bipyridinyl] | high pesticidal efficacy | high pesticidal efficacy |  | 
FC(F)(F)c1cnc2oc(-c3ccncc3Cl)nc2c1 [Compound 139, 2-(3-chloropyridin-4-yl)-6-(trifluoromethyl)oxazolo[5,4-b]pyridine] | high pesticidal efficacy | high pesticidal efficacy |  | 
CCc1cnccc1-c1nc2cc(C(F)(F)F)cnc2o1 [Compound 143, 2-(3-ethylpyridin-4-yl)-6-(trifluoromethyl)oxazolo[5,4-b]pyridine] | high pesticidal efficacy | high pesticidal efficacy |  | 
CSc1cnccc1-c1nc2cc(C(F)(F)F)cnc2o1 [Compound 146, 2-(3-methylthiopyridin-4-yl)-6-(trifluoromethyl)oxazolo[5,4-b]pyridine] | high pesticidal efficacy | high pesticidal efficacy |  | 
FC(F)(F)COc1cnccc1-c1nc2cc(C(F)(F)F)cnc2o1 [Compound 163] |  |  | high pesticidal efficacy | high pesticidal efficacy
